Data as given in patent US9074014B2 (Ipsen Pharma S.A.S., priority 2008, dated 2015).
Where a SMILES comes first, the peptide text is derived from it. Where no end group is shown, it is not given here. [ ]: non-standard residue; d: D form. Ac6c = NC1(C(=O)O)CCCCC1; Nle = CCCC[C@H](N)C(=O)O; Ac5c = NC1(C(=O)O)CCCC1; Aib = CC(C)(N)C(=O)O

Legend:
[1] = target: T1, human recombinant GIP receptor (Homo sapiens, UniProt P48546); assay: In vitro hGIP receptor binding assay ([125I]GIP displacement, CHO-K1 membranes)
T1 construct: expressed in transfected cells; host or cells: CHO-K1 clonal cells (membranes)
T1 sequence (P48546 22-466): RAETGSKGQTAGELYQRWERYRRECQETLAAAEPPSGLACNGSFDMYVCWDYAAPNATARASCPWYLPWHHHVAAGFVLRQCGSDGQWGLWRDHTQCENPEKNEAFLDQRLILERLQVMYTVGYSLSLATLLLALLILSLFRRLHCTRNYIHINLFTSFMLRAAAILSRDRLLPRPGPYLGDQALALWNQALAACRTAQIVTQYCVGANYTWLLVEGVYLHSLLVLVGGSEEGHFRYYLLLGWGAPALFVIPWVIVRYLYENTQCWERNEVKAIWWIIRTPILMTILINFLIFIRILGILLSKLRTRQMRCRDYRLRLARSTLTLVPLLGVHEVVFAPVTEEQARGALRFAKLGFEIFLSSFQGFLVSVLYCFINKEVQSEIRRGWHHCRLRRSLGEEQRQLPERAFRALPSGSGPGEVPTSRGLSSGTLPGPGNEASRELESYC
From the text: A. In Vitro hGIP Receptor Binding Assay

[2] = Human plasma half-life assay; format: in vitro ADME; settings: human plasma, 37° C., LC-MS; read-out: Human Plasma T½ (converted)
[3] = Rat plasma half-life assay; format: in vitro ADME; settings: rat plasma, 37° C., LC-MS; read-out: Rat Plasma T½ (converted)

Compound: CCCC[C@H](NC(=O)[C@H](C)NC(=O)[C@@H](NC(=O)C1(NC(=O)[C@H](Cc2ccc(O)cc2)NC(=O)[C@H](CC(=O)O)NC(=O)[C@H](CO)NC(=O)[C@@H](NC(=O)[C@H](Cc2ccccc2)NC(=O)[C@@H](NC(=O)CNC(=O)[C@@H]2CCCN2C(=O)[C@H](C)NC(=O)[C@@H](N)Cc2ccc(O)cc2)[C@@H](C)O)[C@@H](C)CC)CCCC1)[C@@H](C)CC)C(=O)N[C@@H](CC(=O)O)C(=O)N[C@@H](CCCCN)C(=O)N[C@H](C(=O)N[C@@H](Cc1c[nH]cn1)C(=O)N[C@@H](CCC(N)=O)C(=O)N[C@@H](CCC(N)=O)C(=O)N[C@@H](CC(=O)O)C(=O)N[C@@H](Cc1ccccc1)C(=O)N[C@H](C(=O)N[C@@H](CC(N)=O)C(=O)N[C@@H](Cc1c[nH]c2ccccc12)C(=O)N[C@@H](CC(C)C)C(=O)N[C@@H](CC(C)C)C(=O)N[C@@H](C)C(=O)N[C@@H](CCC(N)=O)C(=O)N[C@@H](CCCCN)C(=O)O)C(C)C)[C@@H](C)CC [Example 92, (Pro^3, A5c^11, Nle^14)hGIP(1-30)-OH] (H-YAPGTFISDY[Ac5c]IA[Nle]DKIHQQDFVNWLLAQK-OH; N-terminus and C-terminus assumed)
- Ki [1]: 86.8 nM
- half-life at 0.1 mg/ml [2]: 12 h
- half-life at 0.1 mg/ml [3]: 1.6 h

Compound: CC[C@H](C)[C@H](NC(=O)[C@H](CCCCN)NC(=O)[C@H](CC(=O)O)NC(=O)C1(NC(=O)[C@H](C)NC(=O)[C@@H](NC(=O)C(C)(C)NC(=O)[C@H](Cc2ccc(O)cc2)NC(=O)[C@H](CC(=O)O)NC(=O)[C@H](CO)NC(=O)[C@@H](NC(=O)[C@H](Cc2ccccc2)NC(=O)[C@@H](NC(=O)CNC(=O)[C@H](CCC(=O)O)NC(=O)C(C)(C)NC(=O)[C@@H](N)Cc2ccc(O)cc2)[C@@H](C)O)[C@@H](C)CC)[C@@H](C)CC)CCCCC1)C(=O)N[C@@H](Cc1c[nH]cn1)C(=O)N[C@@H](CCC(N)=O)C(=O)N[C@@H](CCC(N)=O)C(=O)N[C@@H](CC(=O)O)C(=O)N[C@@H](Cc1ccccc1)C(=O)N[C@H](C(=O)N[C@@H](CC(N)=O)C(=O)N[C@@H](Cc1c[nH]c2ccccc12)C(=O)N[C@@H](CC(C)C)C(=O)N[C@@H](CC(C)C)C(=O)N[C@@H](C)C(=O)N[C@@H](CCC(N)=O)C(=O)N[C@@H](CCCCN)C(N)=O)C(C)C [Example 38, (Aib^2, 11, A6c^14)hGIP(1-30)-NH2] (H-Y[Aib]EGTFISDY[Aib]IA[Ac6c]DKIHQQDFVNWLLAQK-NH2; N-terminus assumed)
- Ki [1]: 0.73 nM
- half-life at 0.1 mg/ml [2]: 49.1 h
- half-life at 0.1 mg/ml [3]: > 54 h

Compound: CCCC[C@H](NC(=O)C(C)(C)NC(=O)[C@@H](NC(=O)[C@H](CO)NC(=O)[C@H](Cc1ccc(O)cc1)NC(=O)[C@H](CC(=O)O)NC(=O)[C@H](CO)NC(=O)[C@@H](NC(=O)[C@H](Cc1ccccc1)NC(=O)[C@@H](NC(=O)CNC(=O)[C@H](CCC(=O)O)NC(=O)C(C)(C)NC(=O)[C@@H](N)Cc1ccc(O)cc1)[C@@H](C)O)[C@@H](C)CC)[C@@H](C)CC)C(=O)N[C@@H](CC(=O)O)C(=O)N[C@@H](CCCCN)C(=O)N[C@H](C(=O)N[C@@H](Cc1c[nH]cn1)C(=O)N[C@@H](CCC(N)=O)C(=O)N[C@@H](CCC(N)=O)C(=O)N[C@@H](CC(=O)O)C(=O)N[C@@H](Cc1ccccc1)C(=O)N[C@H](C(=O)N[C@@H](CC(N)=O)C(=O)N[C@@H](Cc1c[nH]c2ccccc12)C(=O)N[C@@H](CC(C)C)C(=O)N[C@@H](CC(C)C)C(=O)N[C@@H](C)C(=O)N[C@@H](CCC(N)=O)C(=O)N[C@@H](CCCCN)C(=O)NCC(=O)N[C@@H](CCCCN)C(=O)N[C@@H](CCCCN)C(=O)N[C@@H](CC(N)=O)C(=O)N[C@@H](CC(=O)O)C(=O)N[C@@H](Cc1c[nH]c2ccccc12)C(=O)N[C@@H](CCCCN)C(=O)N[C@@H](Cc1c[nH]cn1)C(=O)N[C@@H](CC(N)=O)C(=O)N[C@H](C(=O)N[C@H](C(=O)N[C@@H](CCC(N)=O)C(=O)O)[C@@H](C)O)[C@@H](C)CC)C(C)C)[C@@H](C)CC [Example 57, (Aib^2, 13, Nle^14)hGIP(1-42)-OH]
- Ki [1]: 0.05 nM
- half-life at 0.1 mg/ml [2]: 30.5 h
- half-life at 0.1 mg/ml [3]: 13.8 h

Compound: Y[Aib]EGTFISDYSIA[Ac6c]DKIHQQDFVNWLLAQKGKKNDWKHNITQ-OH [Example 42, (Aib^2, A6c^14)hGIP(1-42)-OH]
- Ki [1]: 0.07 nM
- half-life at 0.1 mg/ml [2]: 10.6 h
- half-life at 0.1 mg/ml [3]: 6.2 h

Compound: Y[Aib]EGTFISDY[Aib]IA[Ac6c]DKIHQQDFVNWLLAQKGKKNDWKHNITQ-OH [Example 41, (Aib^2, 11, A6c^14)hGIP(1-42)-OH]
- Ki [1]: 0.73 nM
- half-life at 0.1 mg/ml [2]: 15.9 h
- half-life at 0.1 mg/ml [3]: 13.3 h

Compound: CC[C@H](C)[C@H](NC(=O)[C@H](CO)NC(=O)[C@H](Cc1ccc(O)cc1)NC(=O)[C@H](CC(=O)O)NC(=O)C(C)(C)NC(=O)[C@@H](NC(=O)[C@H](Cc1ccccc1)NC(=O)[C@@H](NC(=O)CNC(=O)[C@H](CCC(=O)O)NC(=O)C(C)(C)NC(=O)[C@@H](N)Cc1ccc(O)cc1)[C@@H](C)O)[C@@H](C)CC)C(=O)N[C@@H](C)C(=O)N[C@@H](CCSC)C(=O)N[C@@H](CC(=O)O)C(=O)N[C@@H](CCCCN)C(=O)N[C@H](C(=O)N[C@@H](Cc1c[nH]cn1)C(=O)N[C@@H](CCC(N)=O)C(=O)N[C@@H](CCC(N)=O)C(=O)N[C@@H](CC(=O)O)C(=O)N[C@@H](Cc1ccccc1)C(=O)N[C@H](C(=O)N[C@@H](CC(N)=O)C(=O)N[C@@H](Cc1c[nH]c2ccccc12)C(=O)N[C@@H](CC(C)C)C(=O)N[C@@H](CC(C)C)C(=O)N[C@@H](C)C(=O)N[C@@H](CCC(N)=O)C(=O)N[C@@H](CCCCN)C(N)=O)C(C)C)[C@@H](C)CC [Example 17, (Aib^2, 8)hGIP(1-30)-NH2] (H-Y[Aib]EGTFI[Aib]DYSIAMDKIHQQDFVNWLLAQK-NH2; N-terminus assumed)
- Ki [1]: 15.9 nM
- half-life at 0.1 mg/ml [2]: 17.4 h
- half-life at 0.1 mg/ml [3]: 55 h

Compound: CCCC[C@H](NC(=O)C(C)(C)NC(=O)[C@@H](NC(=O)[C@H](CO)NC(=O)[C@H](Cc1ccc(O)cc1)NC(=O)[C@H](CC(=O)O)NC(=O)[C@H](CO)NC(=O)[C@@H](NC(=O)[C@H](Cc1ccccc1)NC(=O)[C@@H](NC(=O)CNC(=O)[C@@H]1CCCN1C(=O)C(C)(C)NC(=O)[C@@H](N)Cc1ccc(O)cc1)[C@@H](C)O)[C@@H](C)CC)[C@@H](C)CC)C(=O)N[C@@H](CC(=O)O)C(=O)N[C@@H](CCCCN)C(=O)N[C@H](C(=O)N[C@@H](Cc1c[nH]cn1)C(=O)N[C@@H](CCC(N)=O)C(=O)N[C@@H](CCC(N)=O)C(=O)N[C@@H](CC(=O)O)C(=O)N[C@@H](Cc1ccccc1)C(=O)N[C@H](C(=O)N[C@@H](CC(N)=O)C(=O)N[C@@H](Cc1c[nH]c2ccccc12)C(=O)N[C@@H](CC(C)C)C(=O)N[C@@H](CC(C)C)C(=O)N[C@@H](C)C(=O)N[C@@H](CCC(N)=O)C(=O)N[C@@H](CCCCN)C(N)=O)C(C)C)[C@@H](C)CC [Example 108, (Aib^2, 13, Pro^3, Nle^14)hGIP(1-30)-NH2] (H-Y[Aib]PGTFISDYSI[Aib][Nle]DKIHQQDFVNWLLAQK-NH2; N-terminus assumed)
- Ki [1]: 0.07 nM
- half-life at 0.1 mg/ml [2]: 46.2 h
- half-life at 0.1 mg/ml [3]: 45.6 h
